Earlier results, collected in patent US10525009B2, “Formulations of 6-mercaptopurine” (Hadasit Medical Research Services and Development Ltd., priority 2004, dated 2020).

Structure (SMILES): Sc1ncnc2nc[nH]c12 [6-MP, 6-mercaptopurine]
- fraction of an oral dose absorbed: Approximately 50%
